Measured values published in patent US6156798A, “Cyclobutyl-aryloxyarylsulfonylamino hydroxamic acid derivatives” (Pfizer Inc, priority 1999, dated 2000).

Columns and labels:
MMP-1 = target: T1, MMP-1 (Homo sapiens, UniProt P03956); experiment: Inhibition of Human Collagenase (MMP-1); type: biochemical; details: human recombinant collagenase, fluorogenic substrate 10 μM, room temperature
T1 sequence (P03956 100-469): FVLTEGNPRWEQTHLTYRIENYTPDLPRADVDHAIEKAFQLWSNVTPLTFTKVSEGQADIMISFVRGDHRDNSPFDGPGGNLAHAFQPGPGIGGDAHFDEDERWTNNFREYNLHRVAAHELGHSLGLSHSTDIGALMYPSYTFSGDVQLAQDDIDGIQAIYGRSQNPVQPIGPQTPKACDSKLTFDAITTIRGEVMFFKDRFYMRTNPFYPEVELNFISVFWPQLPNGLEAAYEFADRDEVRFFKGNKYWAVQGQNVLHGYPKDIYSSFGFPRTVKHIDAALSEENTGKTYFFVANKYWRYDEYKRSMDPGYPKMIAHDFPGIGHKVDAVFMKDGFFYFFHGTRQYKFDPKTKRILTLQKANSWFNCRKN
Protocol: Biological Assay Inhibition of Human Collacienase (MMP-1)
Human recombinant collagenase is activated with trypsin using the following ratio: 10 μg trypsin per 100 μg of collagenase. The trypsin and collagenase are incubated at room temperature for 10 minutes then a five fold excess (50 μg/10 μg trypsin) of soybean trypsin inhibitor is added.
10 mM stock solutions of inhibitors are made up in dimethyl sulfoxide and then dilute using the following Scheme:
Twenty-five microliters of each concentration is then added in triplicate to appropriate wells of a 96 well microfluor plate. The final concentration of inhibitor will be a 1:4 dilution after addition of enzyme and substrate. Positive controls (enzyme, no inhibitor) are set up in wells D1-D6 and blanks (no enzyme, no inhibitors) are set in wells D7-D12.
Collagenase is diluted to 400 ng/ml and 25 μl is then added to appropriate wells of the microfluor plate. Final concentration of collagenase in the assay is 100 ng/ml. […]
Fluorescence readings (360 nm excitation, 460 nm emission) were taken at time 0 and then at 20 minute intervals. […]
Fluorescence vs time is then plotted for both the blank and collagenase containing samples (data from triplicate determinations is averaged). […] Data is plotted as inhibitor concentration vs % control (inhibitor fluorescence divided by fluorescence of collagenase alone×100). […]

MMP-13 = MMP-13 (Homo sapiens, UniProt P45452); experiment: Inhibition of MMP-13; type: biochemical; details: human recombinant MMP-13, fluorogenic substrate 10 μM
Protocol: Human recombinant MMP-13 is activated with 2 mM APMA (p-aminophenyl mercuric acetate) for 1.5 hours, at 37° C. and is diluted to […] in assay buffer (50 mM Tris, pH 7.5, 200 mM sodium chloride, 5 mM calcium chloride, 20 μM zinc chloride, 0.02% brij). Twenty-five microliters of diluted enzyme is added per well of a 96 well microfluor plate. The enzyme is then diluted in a 1:4 ratio in the assay by the addition of inhibitor and substrate to give a final concentration in the assay of […].
10 mM stock solutions of inhibitors are made up in dimethyl sulfoxide and then diluted in assay buffer as per the inhibitor dilution scheme for inhibition of human collagenase (MMP-1): Twenty-five microliters of each concentration is added in triplicate to the microfluor plate. The final concentrations in the assay are 30 μM, 3 μM, 0.3 μM, and 0.03 μM.
Substrate (Dnp-Pro-Cha-Gly-Cys(Me)-His-Ala-Lys(NMA)-NH2) is prepared as for inhibition of human collagenase (MMP-1) and […] is added to each well to give a final assay concentration of 10 μM. Fluorescence readings (360 nm excitation; 450 emission) are taken at time 0 and every 5 minutes for 1 hour.
Positive controls consist of enzyme and substrate with no inhibitor and blanks consist of substrate only.
IC50 's are determined as per inhibition of human collagenase (MMP-1). […]

Row | IC50 (MMP-1) | IC50 (MMP-13) | Structure (SMILES)
1 | 90 nM | 0.6 nM | O=C(O)CCN(C1(C(=O)NO)CCC1)S(=O)(=O)c1ccc(Oc2ccc(F)cc2)cc1 [1 (R^1 = H), 3-[[4-(4-Fluorophenoxy)phenylsulfonyl]-1[(N-hydroxycarbamoyl)cyclobutyl]amino]propionic acid]
2 | 18 nM | 0.6 nM | CCOC(=O)CCN(C1(C(=O)NO)CCC1)S(=O)(=O)c1ccc(Oc2ccc(F)cc2)cc1 [1 (R^1 = ethyl), Ethyl 3-[[4-(4-fluorophenoxy)phenylsulfonyl]-1-[(N-hydroxycarbamoyl)cyclobutyl]amino]propionate]
